PubChem BioAssay (NCI)
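Growth conditions: 96-well plates. Treatment: test compound, 48 hours, 5 concentrations. Analysis: linear interpolation between bracketing concentrations; unreached endpoints set to highest concentration. The concentration for full growth arrest is given as TGI.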

How the values were obtained:
Experiment in all cases: NCI anticancer screen, dose series, 48 h
K-562 leukemia = system: K-562 leukemia
HS 578T breast = system: HS 578T breast
SN12C renal = system: SN12C renal
U251 CNS = system: U251 CNS
EKVX NSCLC = system: EKVX NSCLC
TK-10 renal = system: TK-10 renal
SF-539 CNS = system: SF-539 CNS
SK-MEL-28 melanoma = system: SK-MEL-28 melanoma
786-0 renal = system: 786-0 renal
SW-620 colon = system: SW-620 colon

Row | SMILES | TGI (K-562 leukemia) [µM] | TGI (HS 578T breast) [µM] | TGI (SN12C renal) [µM] | TGI (U251 CNS) [µM] | TGI (EKVX NSCLC) [µM] | TGI (TK-10 renal) [µM] | TGI (SF-539 CNS) [µM] | TGI (SK-MEL-28 melanoma) [µM] | TGI (786-0 renal) [µM] | TGI (SW-620 colon) [µM]
1 | COC(=O)Cc1ccc2c(c1)Sc1ccc(CC(=O)OC)cc1N2C | > 100 | > 89.3 | > 100 | > 100 | > 100 | > 100 | > 100 | > 100 | > 100 | > 100
2 | C=CCC(C)C12CCNC(Cc3ccc(O)cc31)C2C (stereo not given) | > 100 | > 100 | > 100 | > 100 | > 100 | > 100 | > 100 | > 100 | > 100 | > 100
3 | Cc1nc2ccc(S(=O)(=O)Nc3ccc(Cl)cc3)cc2c(=O)n1NC(=O)CNc1ccc(Cl)cc1 | > 100 | > 100 | > 100 | > 100 | > 100 | > 100 | > 100 | > 100 | > 100 | > 100
